Assays:
human 5-LOX = target: T1, human 5-LOX (Homo sapiens, UniProt P09917); assay: 5-LOX enzyme activity, fluorescence method (5-HPETE, H2DCFDA); format: biochemical; settings: read-out: 5-LO (IC50)
T1 construct: purchased Cayman 60402; host or cells: insect cells (lysate)
T1 sequence (P09917 1-674): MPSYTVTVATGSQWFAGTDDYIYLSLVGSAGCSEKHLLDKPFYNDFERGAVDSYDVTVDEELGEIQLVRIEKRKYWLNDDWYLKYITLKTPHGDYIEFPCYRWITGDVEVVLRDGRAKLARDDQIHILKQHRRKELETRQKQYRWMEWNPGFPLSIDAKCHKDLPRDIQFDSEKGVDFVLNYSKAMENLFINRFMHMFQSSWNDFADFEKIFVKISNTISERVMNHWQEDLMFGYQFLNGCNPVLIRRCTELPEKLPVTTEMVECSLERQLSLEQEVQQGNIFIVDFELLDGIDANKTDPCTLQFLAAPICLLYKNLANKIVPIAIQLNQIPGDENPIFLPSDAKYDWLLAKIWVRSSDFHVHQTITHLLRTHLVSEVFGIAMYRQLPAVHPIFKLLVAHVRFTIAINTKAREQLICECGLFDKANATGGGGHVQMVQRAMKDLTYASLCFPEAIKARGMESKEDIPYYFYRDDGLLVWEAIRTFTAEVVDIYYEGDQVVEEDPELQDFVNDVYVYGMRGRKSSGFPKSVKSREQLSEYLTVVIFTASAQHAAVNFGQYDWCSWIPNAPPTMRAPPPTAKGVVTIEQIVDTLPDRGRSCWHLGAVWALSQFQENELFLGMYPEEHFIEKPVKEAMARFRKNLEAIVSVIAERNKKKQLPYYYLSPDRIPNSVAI
Procedure, shortened: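 Fluorescence-based read-out, run entirely at room temperature. Enzyme mixture was exposed to a dose range of compound from 0.5 nM to 10 uM for 5 min before ATP and arachidonic acid were added to final levels of 100 uM and 3 uM.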

[1] = test system: Rat basophilic leukemia (RBL) cells; assay: LTB4 secretion assay in RBL (rat basophilic leukemia cells); format: cell-based; settings: Rattus norvegicus, RBL
Procedure, shortened: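 LTB4 released into supernatant was measured by EIA after 10 min at 37 °C with arachidonic acid (2.5 uM final) and calcium ionophore A23187 (5 uM final). Before stimulation, cells plated 2×10^4/well overnight received compound doses (5 nM to 100 uM) for 15 min in 0.5% FBS medium.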

Rat whole blood (RWB) = assay: LTB4 secretion assay in RWB (rat whole blood); format: cell-based; settings: Rattus norvegicus
Protocol: Rat blood was drawn from caudal vena cava from male Sprague Dawley rat (6-9 weeks old) in vacuette coated with sodium heparin (Greiner bio-one, Cat #455051). The blood was pooled and diluted with RPMI (WelGENE, Cat #LM 011-05) to 1:1. The diluted blood was aliquoted into 96 well plate (200 ul per well) and compounds were added in dose response to a desired concentration ranging from 2.5 nM to 50 uM. After 15 min of pre-incubation at 37° C., calcium ionophore (A23187) was added to the final concentration of 10 uM. After 10 min of further incubation at 37° C., the LTB4 production was stopped by diluting the reaction mixture with ice cold PBS (1:4 dilutions). Cells were removed by centrifugation at 1000×g, 4° C. for 10 min, and the supernatant was transferred and then the quantification of LTB4 was done with Leukotriene B4 EIA kit (Cayman, Cat #520111) as instructed.

| Compound | IC50 (human 5-LOX) | EC50 [1] | EC50 (Rat whole blood (RWB)) |
| --- | --- | --- | --- |
| Cn1c(NCc2ccc(Oc3ncc(Cl)cn3)cc2F)nc2ccc(NC3COC3)cc21 [Compound 381] | < 1 µM | > 20 µM | < 10 µM |
| Cn1c(NCc2ccc(Oc3ccc(Cl)cn3)nc2)nc2ccc(NC3COC3)cc21 [Compound 309] | < 1 µM | > 20 µM | > 20 µM |
| Cc1cc(Nc2ccc3[nH]c(NCc4ccc(Oc5ccc(Cl)cc5)cc4)nc3c2)n[nH]1 [Compound 8] | < 1 µM |  | > 20 µM |
| Cc1ccc(Oc2ccc(CNc3nc4ccc(N)cc4n3C)cc2)nn1 [Compound 311] | < 1 µM | > 20 µM | < 10 µM |
| CCn1c(NCc2ccc(Oc3ncc(C(F)(F)F)cn3)cc2F)nc2ccc(NC3COC3)cc21 [Compound 542] | < 1 µM | < 10 µM | < 10 µM |
| CCn1c(NCc2ccc(Oc3ncc(Cl)cn3)cc2)nc2ccc(Nc3cc(C(C)(C)C)[nH]n3)cc21 [Compound 509] | < 1 µM | < 10 µM | < 10 µM |
| Cn1c(NCc2ccc(Oc3ccc4cc(F)ccc4n3)cc2)nc2ccc(NC3COC3)cc21 [Compound 383] | < 1 µM | < 10 µM | > 20 µM |
| Nc1nc2ccc(Nc3n[nH]cc3C(=O)NC3CC3)cc2n1CCOc1ccc(OC(F)(F)F)cc1 [Compound 17] | 1 to 10 µM | < 10 µM | > 20 µM |
| COc1cc(Oc2ccc(Cl)cn2)ccc1CNc1nc2ccc(NC3COC3)cc2n1C [Compound 328] | < 1 µM | < 10 µM | < 10 µM |
| Nc1ccc2[nH]c(NCc3ccc(N4CCC(OCc5ccc(Cl)cc5)CC4)cc3)nc2c1 [Compound 6] | < 1 µM |  | > 20 µM |
| Cc1cc(Nc2ccc3nc(NCc4ccc(Nc5ncc(Cl)cn5)cc4)n(C)c3c2)n[nH]1 [Compound 486] | < 1 µM | < 10 µM | < 10 µM |
| CN(c1ccc2nc(NCc3ccc(Oc4ccc(Cl)cn4)cc3)n(C)c2c1)C1COC1 [Compound 277] | < 1 µM | < 10 µM | < 10 µM |
| Cn1nc(Nc2ccc3nc(NCc4ccc(Oc5ncc(Cl)cn5)cc4)n(C)c3c2)cc1C(F)(F)F [Compound 468] | < 1 µM | < 10 µM | < 10 µM |
| Cn1c(NCc2ccc(Oc3ncc(Cl)cn3)cc2)nc2ccc(Nc3nc(C(F)(F)F)cs3)cc21 [Compound 494] | 1 to 10 µM | < 10 µM | < 10 µM |
| Nc1ccc2nc(NC3CCCC3)n(Cc3ccc(Oc4ccc(Cl)cc4)cc3)c2c1 [Compound 161] | < 1 µM | < 10 µM | 10 to 20 µM |
| FC(F)(F)CCNc1nc2ccc(NC3COC3)cc2n1Cc1ccc(Oc2ccc(Cl)cc2)cc1 [Compound 279] | 1 to 10 µM | < 10 µM | < 10 µM |
| Nc1ccc2[nH]c(NCc3ccc(Cl)cc3F)nc2c1 [Compound 30] | < 1 µM | < 10 µM | < 10 µM |
| Nc1ccc2[nH]c(NCc3ccc(Oc4ccc(Cl)c(Cl)c4)cc3)nc2c1 [Compound 112] | < 1 µM | < 10 µM | 10 to 20 µM |
| CC(C)(Nc1nc2cc(N)ccc2[nH]1)c1ccc(Oc2ccc(Cl)cc2)cc1 [Compound 20] | < 1 µM |  | > 20 µM |
| Nc1ccc2c(c1)nc(N1CCC1)n2CCOc1ccc(OC(F)(F)F)cc1 [Compound 70] | < 1 µM | < 10 µM | > 20 µM |
| Nc1ccc2[nH]c(NCc3ccc(Oc4ccc(Cl)cc4)cc3F)nc2c1 [Compound 10] | < 1 µM |  | 10 to 20 µM |

| Compound | IC50 (human 5-LOX) | EC50 [1] | EC50 (Rat whole blood (RWB)) |
| --- | --- | --- | --- |
| Nc1ccc2[nH]c(NCc3ccc(N4CCOCC4)cc3)nc2c1 [Compound 7] | < 1 µM |  | > 20 µM |
| Nc1ccc2[nH]c(NCc3ccc4oc(-c5ccc(OC(F)(F)F)cc5)nc4c3)nc2c1 [Compound 1] | < 1 µM |  | > 20 µM |
| Nc1ccc2[nH]c(NCc3ccc(N4CCC(COc5ccc(Cl)cc5)CC4)cc3)nc2c1 [Compound 5] | < 1 µM |  | 10 to 20 µM |
| Nc1ccc2[nH]c(NCc3ccc(N4CCC(Oc5ccc(Cl)cc5)C4)cc3)nc2c1 (centres unmarked) [Compound 3] | < 1 µM |  | > 20 µM |
| Fc1ccc(Nc2ccc3[nH]c(NCc4ccc(Oc5ccc(Cl)cc5)cc4)nc3c2)cn1 [Compound 23] | 1 to 10 µM |  | 10 to 20 µM |
| Clc1ccc(Oc2ccc(CNc3nc4cc(Nc5cccnc5)ccc4[nH]3)cc2)cc1 [Compound 16] | < 1 µM |  | > 20 µM |
| CCOC(=O)c1c[nH]nc1Nc1ccc2[nH]c(NCc3ccc(Oc4ccc(Cl)cc4)cc3)nc2c1 [Compound 13] | 1 to 10 µM |  | > 20 µM |
| Nc1ccc2[nH]c(NCc3ccc(Oc4ccc(Cl)cc4)cc3Cl)nc2c1 [Compound 9] | < 1 µM |  | 10 to 20 µM |
| O=C(NC1CC1)c1c[nH]nc1Nc1ccc2[nH]c(NCc3ccc(Oc4ccc(Cl)cc4)cc3)nc2c1 [Compound 12] | < 1 µM |  | < 10 µM |
| Nc1ccc2nc(N)n(CCc3ccc(Oc4ccc(Cl)cc4)cc3)c2c1 [Compound 15] | < 1 µM |  | > 20 µM |
| Nc1ccc2[nH]c(NCc3ccc(OCc4ccc(Cl)cc4)cc3)nc2c1 [Compound 4] | < 1 µM |  | > 20 µM |
| Nc1ccc2[nH]c(NCCc3ccc(Oc4ccc(Cl)cc4)cc3)nc2c1 [Compound 11] | < 1 µM |  | < 10 µM |
| CCOC(=O)c1c[nH]nc1Nc1ccc2nc(N)n(CCOc3ccc(OC(F)(F)F)cc3)c2c1 [Compound 22] | > 10 µM |  | > 20 µM |
| Nc1ccc2nc(N)n(Cc3ccc(Oc4ccc(Cl)cn4)c(F)c3)c2c1 [Compound 248] | < 1 µM | < 10 µM |  |
| Cn1c(NCc2ccc(Oc3cnc4cc(Cl)ccc4n3)cc2)nc2ccc(NC3COC3)cc21 [Compound 427] | < 1 µM | < 10 µM |  |
| CCn1c(NCc2ccc(Oc3ccc(Cl)cn3)cc2)nc2ccc(N)cc21 [Compound 265] | < 1 µM | < 10 µM |  |
| Cn1c(NCc2ccc(Oc3ccc4cccc(Cl)c4n3)cc2)nc2ccc(N)cc21 [Compound 421] | < 1 µM | < 10 µM |  |
| Nc1ccc2[nH]c(N3CCC(C(=O)Nc4ccc(OC(F)(F)F)cc4)C3)nc2c1 (centres unmarked) [Compound 64] | < 1 µM | > 20 µM |  |
| CNC(=O)c1cnc(Oc2ccc(CNc3nc4ccc(N)cc4n3C)cc2)nc1 [Compound 462] | < 1 µM | > 20 µM |  |
| Nc1ccc2nc(NCc3ccc(C(=O)C4CCCC4)cc3)[nH]c2c1 [Compound 168] | < 1 µM | < 10 µM |  |
| CN1CCN(CCNc2ccc3nc(NCc4ccc(Oc5ccc(Cl)cn5)cc4)n(C)c3c2)CC1 [Compound 333] | < 1 µM | < 10 µM |  |

From patent publication US11447486B2, “2-amino-benzimidazole derivatives and their use as 5-lipoxygenase and/or prostaglandin E synthase inhibitors” (INSTITUT PASTEUR KOREA, priority 2014, dated 2022)
